Experimental data from patent US12410171B2, “Tropomyosin receptor kinase (TRK) degradation compounds and methods of use” (Cullgen (Shanghai), Inc., priority 2020, dated 2025).
Read-outs that look alike come from different tables or passages of the source.

Key:
KM12 cells = assay: KM12 cell viability (CellTiter-Glo); assay type: cell-based; details: for IC50: Homo sapiens, 72 h, KM12 cell viability, CellTiter-Glo, read-out: IC50
Method in brief: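 KM12 cells seeded at 5000 per well in RPMI 1640 + 10% FBS and exposed 3 days to serial dilutions (11-point 3-fold, 8-point 3-fold from 1000 nM, or 12-point 2-fold). Viability by CellTiter-Glo; IC50 from least-squares nonlinear regression.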

TPM3-TRKA fusion protein = target: T1, TPM3-TRKA fusion protein (Homo sapiens, UniProt P04629); assay: TPM3-TRKA fusion protein levels in KM12 cells (Western blot); assay type: cell-based; details: for percent degradation of TPM3-TRKA protein at 0.01 µM: 16 h, read-out: Degradation (at 10 nM)
T1 construct: The resulted chimeric proteins always retain the kinase domain of TRK proteins; TPM3 (fusion partner, N-terminal part of tropomyosin alpha-3, P06753); endogenous in cells; host or cells: KM12 colon cancer cells; the other entry of the earlier key: TPM3 (P06753, Tropomyosin alpha-3 chain)
Method in brief: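 KM12 colon cancer cells were treated with DMSO or compounds at 0.1–100 nM, 0.4–30 nM or other stated concentrations for 4, 8–16 or 16 h. RIPA lysates were BCA-normalized and resolved by SDS-PAGE. TPM3-TRKA was detected by chemiluminescent Western blot, with bands quantified by densitometry.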

[1] = TPM3-TRKA degradation in KM12 cells at 10 nM compound, category of percentage degradation
[2] = 500 nM, 12-point 2-fold serial dilution, 3 days (FIG. 4A)
[3] = 11-point 3-fold serial dilution, 3 days
[4] = TPM3-TRKA degradation in KM12 cells at 10 nM

T1 sequence (P04629 with tags, fused parts or gaps): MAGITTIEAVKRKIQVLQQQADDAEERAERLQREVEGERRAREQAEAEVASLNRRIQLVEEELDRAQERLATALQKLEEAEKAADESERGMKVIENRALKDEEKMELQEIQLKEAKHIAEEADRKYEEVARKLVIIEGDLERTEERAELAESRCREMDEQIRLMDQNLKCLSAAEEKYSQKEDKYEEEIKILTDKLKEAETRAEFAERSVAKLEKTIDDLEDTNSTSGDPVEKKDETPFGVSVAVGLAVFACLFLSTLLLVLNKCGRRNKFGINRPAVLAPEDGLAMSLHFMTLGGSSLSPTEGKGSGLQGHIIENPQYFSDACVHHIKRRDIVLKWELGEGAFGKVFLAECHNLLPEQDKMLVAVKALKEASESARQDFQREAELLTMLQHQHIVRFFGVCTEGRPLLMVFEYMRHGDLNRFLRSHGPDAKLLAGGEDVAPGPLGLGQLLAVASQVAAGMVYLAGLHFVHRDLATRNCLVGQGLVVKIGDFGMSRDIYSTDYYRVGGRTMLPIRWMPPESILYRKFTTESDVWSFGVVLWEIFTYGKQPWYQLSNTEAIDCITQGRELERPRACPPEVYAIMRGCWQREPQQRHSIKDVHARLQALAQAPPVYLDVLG

Row | SMILES | IC50 (KM12 cells; three days treatment) [nM] | further results
1 | O=C1CCC(N2C[C@H](c3ccc(C#CCN4CCN(c5cccc(-c6cnc7ccc(N8CCCC8c8cccc(F)c8)nn67)n5)CC4)cc3)OC2=O)C(=O)N1 (stereo in doubt) [TR-224, 3-((S)-5-(4-(3-(4-(6-(6-((S)-2-(3-fluorophenyl)pyrrolidin-1-yl)imidazo[1,2-b]pyridazin-3-yl)pyridin-2-yl)piperazin-1-yl)prop-1-yn-1-yl)phenyl)-2-oxooxazolidin-3-yl)piperidine-2,6-dione] | 8.7 | percent degradation of TPM3-TRKA protein at 0.01 µM (TPM3-TRKA fusion protein; [1]): > 80%
2 | O=C1CCC(N2C(=O)c3cccc(NCCOCCOCCOCCC(=O)N4CCN(c5cccc(-c6cnc7ccc(N8CCC[C@@H]8c8cccc(F)c8)nn67)n5)CC4)c3C2=O)C(=O)N1 (stereo partly drawn) [CPD-010, 2-(2,6-Dioxopiperidin-3-yl)-4-((2-(2-(2-(3-(4-(6-(6-((R)-2˜ (3-fluorophenyl)pyrrolidin-1-yl)imidazo[1,2-b]pyridazin-3-yl)pyridin-2-yl)piperazin-1-yl)-3-oxopropoxy)ethoxy)ethoxy)ethyl)amino) isoindoline-1,3-dione] | – | viability of KM12 cells (KM12 cells; [2]): inhibited the viability of KM12 cells; percent degradation of TPM3-TRKA protein at 0.01 µM (TPM3-TRKA fusion protein; [1]): 50 to 80%
3 | O=C1CCC(N2C(=O)c3cccc(NCCCC(=O)N4CCN(c5ccc(C(=O)Nc6n[nH]c7ccc(Cc8cc(F)cc(F)c8)cc67)c(NC6CCOCC6)c5)CC4)c3C2=O)C(=O)N1 (centres unmarked) [CPD-053, N-(5-(3,5-Difluorobenzyl)-1H-indazol-3-yl)-4-(4-(4-((2-(2,6-dioxopiperidin-3-yl)-1,3-dioxoisoindolin-4-yl)amino)butanoyl)piperazin-1-yl)-2-((tetrahydro-2H-pyran-4-yl)amino)benzamide] | 1.5 | viability of KM12 cells (KM12 cells; [2]): inhibited the viability of KM12 cells; viability of KM12 cells (KM12 cells; 1000 nM, 8-point 3-fold serial dilution, 3 days (FIG. 4B)): significantly inhibited the viability of KM12 cells; percent degradation of TPM3-TRKA protein at 0.01 µM (TPM3-TRKA fusion protein; [1]): > 80%; TPM3-TRKA protein levels (TPM3-TRKA fusion protein; KM12 cells, 100 nM, indicated incubation time, Western blot (FIG. 2)): rapidly reduced TPM3-TRKA protein levels
4 | O=C1CCC(N2C(=O)c3cccc(NCCOCCOCCOCCC(=O)N4CCN(c5ccc(C(=O)Nc6n[nH]c7ccc(Cc8cc(F)cc(F)c8)cc67)c(NC6CCOCC6)c5)CC4)c3C2=O)C(=O)N1 (stereo not drawn) [CPD-057, N—(S-(3,5-Difluorobenzyl)-1H-indazol-3-yl)-4-(4-(3-(2-(2-(2-((2-(2,6-dioxopiperidin-3-yl)-1,3-dioxoisoindolin-4-yl)amino)ethoxy)ethoxy)ethoxy)propanoyl)piperazin-1-yl)-2-((tetrahydro-2H-pyran-4-yl)amino)benzamide] | – | viability of KM12 cells (KM12 cells; [2]): inhibited the viability of KM12 cells; percent degradation of TPM3-TRKA protein at 0.01 µM (TPM3-TRKA fusion protein; [1]): > 80%
5 | O=C1CCC(N2C(=O)c3ccc(NCCCC(=O)N4CCC(Nc5cccc(C(=O)Nc6cnn7ccc(N8CCC[C@@H]8c8cc(F)ccc8F)nc67)n5)CC4)cc3C2=O)C(=O)N1 (stereo partly drawn) [CPD-470, N-(5-((R)-2-(2,5-difluorophenyl)pyrrolidin-1-yl)pyrazolo[1,5-a]pyrimidin-3-yl)-6-((1-(4-((2-(2,6-dioxopiperidin-3-yl)-1,3-dioxoisoindolin-5-yl)amino)butanoyl)piperidin-4-yl)amino)picolinamide] | – | IC50 (KM12 cells; [3]): 21 nM; percent degradation of TPM3-TRKA protein at 0.01 µM (TPM3-TRKA fusion protein; [4]): > 80%
6 | O=C1CCC(N2C(=O)c3ccc(NCCCCCC(=O)N4CCC(Nc5cccc(C(=O)Nc6cnn7ccc(N8CCC[C@@H]8c8cc(F)ccc8F)nc67)n5)CC4)cc3C2=O)C(=O)N1 (stereo partly drawn) [CPD-471, N-(5-((R)-2-(2,5-difluorophenyl)pyrrolidin-1-yl)pyrazolo[1,5-a]pyrimidin-3-yl)-6-((1-(6-((2-(2,6-dioxopiperidin-3-yl)-1,3-dioxoisoindolin-5-yl)amino)hexanoyl)piperidin-4-yl)amino)picolinamide] | – | IC50 (KM12 cells; [3]): 19 nM; percent degradation of TPM3-TRKA protein at 0.01 µM (TPM3-TRKA fusion protein; [4]): > 80%
7 | O=C1CCC(n2c(=O)n(CCCN3CCN(c4cccc(-c5cnc6ccc(N7CCC[C@@H]7c7cccc(F)c7)cn56)n4)CC3)c3ccccc32)C(=O)N1 (stereo partly drawn) [TR-243, 3-(3-(3-(4-(6-(6-((R)-2-(3-Fluorophenyl)pyrrolidin-1-yl)imidazo[1,2-a]pyridin-3-yl)pyridin-2-yl)piperazin-1-yl)propyl)-2-oxo-2,3-dihydro-1H-benzo[d]imidazol-1-yl)piperidine-2,6-dione] | > 500 | –
8 | Cn1c(=O)n(C2CCC(=O)NC2=O)c2ccc(OCCCN3CCN(c4cccc(-c5cnc6ccc(N7CCC[C@@H]7c7cccc(F)c7)nn56)n4)CC3)cc21 (stereo partly drawn) [TR-257, 3-(5-(3-(4-(6-(6-((R)-2-(3-Fluorophenyl)pyrrolidin-1-yl)imidazo[1,2-b]pyridazin-3-yl)pyridin-2-yl)piperazin-1-yl)propoxy)-3-methyl-2-oxo-2,3-dihydro-1H-benzo[d]imidazol-1-yl)piperidine-2,6-dione] | > 500 | –
9 | O=C1CCC(N2C(=O)c3ccc(CN4CCN(c5ccc(C(=O)Nc6n[nH]c7ccc(Cc8cc(F)cc(F)c8)cc67)c(NC6CCOCC6)c5)CC4)cc3C2=O)C(=O)N1 (centres unmarked) [TR-274, N-(5-(3,5-Difluorobenzyl)-1H-indazol-3-yl)-4-(4-((2-(2,6-dioxopiperidin-3-yl)-1,3-dioxoisoindolin-5-yl)methyl)piperazin-1-yl)-2-((tetrahydro-2/-pyran-4-yl)amino)benzamide] | 440 | –
10 | O=C1CCC(N2C(=O)c3ccc(CCN4CCN(c5ccc(C(=O)Nc6n[nH]c7ccc(Cc8cc(F)cc(F)c8)cc67)c(NC6CCOCC6)c5)CC4)cc3C2=O)C(=O)N1 (centres unmarked) [TR-277, N-(5-(3,5-Difluorobenzyl)-1H-indazol-3-yl)-4-(4-(2-(2-(2,6-dioxopiperidin-3-yl)-1,3-dioxoisoindolin-S-yl)ethyl)piperazin-1-yl)-2-((tetrahydro-2H-pyran-4-yl)amino)benzamide] | > 500 | –
11 | O=C1CCC(N2C(=O)c3ccc(N4CC5(CCC(N6CCN(c7ccc(C(=O)Nc8n[nH]c9ccc(Cc%10cc(F)cc(F)c%10)cc89)c(NC8CCOCC8)c7)CC6)C5)C4)cc3C2=O)C(=O)N1 (centres unmarked) [TR-291, N-(5-(3,5˜Difluorobenzyl)-1H-indazol-3-yl)-4-(4-(2-(2-(2,6-dioxopiperidin-3-yl)-1,3-dioxoisoindolin-5-yl)-2-azaspiro[3.4]octan-6-yl)piperazin-1-yl)-2-((tetrahydro-2H-pyran˜4-yl)amino)benzamide] | 446 | –
12 | Cc1nc2cccc(N3CC(CCN4CCN(c5cccc(-c6cnc7ccc(N8CCC[C@@H]8c8cccc(F)c8)nn67)n5)CC4)C3)c2c(=O)n1C1CCC(=O)NC1=O (stereo partly drawn) [TR-307, 3-(5˜ (3-(2-(4-(6-(6-((R)-2-(3-Fluorophenyl)pyrrolidin-1-yl)imidazo[1,2-b]pyridazin-3-yl)pyridin-2-yl)piperazin-1-yl)ethyl)azetidin-1-yl)-2-methyl-4-oxoquinazolin-3 (4H)-yl)piperidine-2,6-dione] | 12.7 | –
13 | O=C1CCC(n2c(=O)n(CCN3CCN(c4ccc(C(=O)Nc5n[nH]c6ccc(Cc7cc(F)cc(F)c7)cc56)c(NC5CCOCC5)c4)CC3)c3ccccc32)C(=O)N1 (stereo not drawn) [TR-310, N—(S-(3,5-Difluorobenzyl)-1H-indazol-3-yl)-4-(4-(2-(3-(2,6-dioxopiperidin-3-yl)-2-oxo-2,3-dihydro-1H-benzo[d]imidazol-1-yl)ethyl)piperazin-1-yl)-2-((tetrahydro-2H-pyran-4-yl)amino)benzamide] | 12.5 | –
14 | O=C1CCC(n2c(=O)n(CCCN3CCN(c4ccc(C(=O)Nc5n[nH]c6ccc(Cc7cc(F)cc(F)c7)cc56)c(NC5CCOCC5)c4)CC3)c3ccccc32)C(=O)N1 (stereo not drawn) [TR-311, N—(S-(3,5-Difluorobenzyl)-1H-indazol-3-yl)-4-(4-(3-(3-(2,6-dioxopiperidin-3-yl)-2-oxo-2,3-dihydro-1H-benzo[d]imidazol-1-yl)propyl)piperazin-1-yl)-2˜ ((tetrahydro-2H-pyran-4-yl)amino)benzamide] | 14.8 | –
15 | Cn1c(=O)n(C2CCC(=O)NC2=O)c2cccc(OCCCN3CCN(c4ccc(C(=O)Nc5n[nH]c6ccc(Cc7cc(F)cc(F)c7)cc56)c(NC5CCOCC5)c4)CC3)c21 (centres unmarked) [TR-312, N-(5-(3,5-Difluorobenzyl)-1H-indazol-3-yl)-4-(4-(3-((1-(2,6-dioxopiperidin-3-yl)-3-methyl-2-oxo-2,3-dihydro-1H-benzo[d]imidazol-4-yl)oxy)propyl)piperazin-1-yl)-2-((tetrahydro-2/˜pyran-4-yl)amino)benzamide] | 107 | –
16 | Cn1c(=O)n(C2CCC(=O)NC2=O)c2ccc(OCCCN3CCN(c4ccc(C(=O)Nc5n[nH]c6ccc(Cc7cc(F)cc(F)c7)cc56)c(NC5CCOCC5)c4)CC3)cc21 (centres unmarked) [TR-313, N-(5-(3,5-Difluorobenzyl)-1H-indazol-3-yl)-4-(4-(3-((1-(2,6-dioxopiperidin-3-yl)-3-methyl-2-oxo-2,3-dihydro-1H-benzo[d]imidazol-5-yl)oxy)propyl)piperazin-1-yl)-2-((tetrahydro-2/1-pyran-4-yl)amino)benzamide] | 13.8 | –
17 | O=C1CCC(N2C(=O)c3ccc(N4CC5(CN(CC6CCN(c7ccc(C(=O)Nc8n[nH]c9ccc(Cc%10cc(F)cc(F)c%10)cc89)c(NC8CCOCC8)c7)CC6)C5)C4)cc3C2=O)C(=O)N1 (centres unmarked) [TR-329] | > 500 | –
